What was measured:
MDA-MB-468 cells [1] = experiment: MTT viability, EJ1 in combination with pathway inhibitors or ROS scavenger; type: cell-based; settings: MDA-MB-468, 20 μmol/l EJ1 plus inhibitor
Experimental: (a) MDA-MB-468 cells were treated with either 20 μmol/l CP (A-D) or 20 μmol/l EJ1 (E-H) for 0 minutes (A, E), 15 minutes (B, F), 60 minutes (C, G), or 16 hours (D, H). Arrows indicate membrane blebs and arrowheads indicate intracellular vacuoles. (b) BxPC3 cells were serum starved overnight, then treated with 20 μmol/l EJ1 and 50 ng/ml Texas-Red-labeled EGF, and imaged for 30 minutes with an Olympus IX71 deconvolution microscope. Panels A-F are bright field images, D′-F′ are red channel images (Texas-Red-labeled EGF). Arrowheads indicate locations of EGF accumulation on membrane protrusions. (c) Diagram depicts Ca^2+/CaM-regulated signaling pathway, and inhibitors acting at different targets are indicated. (d) MDA-MB-468 cells were pretreated with 50 μmol/l W-13 (D-F), 10 μmol/l ML-7 (G-I), or 10 μmol/l Y-27632 (J-L) in complete medium at 37° C. for 30 minutes and then treated with vehicle, 20 μmol/l CP, or 20 μmol/l EJ1 in combination with W-13, ML-7, or Y-27632 in complete medium at 37° C. for 15 minutes. Images represent the bright field images. Arrows indicate membrane blebbing. (e) MDA-MB-468 cells were untreated (UNTX) or treated with water (Vehicle), 20 μmol/l EJ1, 10 μmol/l Y-27632, or 10 μmol/l ML-7 alone or EJ1 in combination with Y-27632 or ML-7, and the viability was assessed by the MTT assay. **P<0.01 (Student's t-test). Error bars, mean±SD. (f) MDA-MB-468 cells were either in serum-free medium (SF) or stimulated with 100 ng/ml EGF (EGF) and then incubated with water (Vehicle), 20 μmol/l CP, 20 μmol/l EJ1, 2 μmol/l ionomycin, 50 μmol/l W-13, 100 μmol/l KN-93, or EJ1 in combination with ionomycin for 15 minutes. Lysates were immunoblotted with antibodies as indicated. (g) Stable, neomycin-selected NIH3T3 cell lines were created, expressing either Rac1 wild-type (Rac1-WT) or Rac1 constitutively active mutant (Rac1-Q61L). Cells were treated with water (Vehicle), 20 μmol/l CP, or 20 μmol/l EJ1, and the viability was assessed by MTT. ***P<0.001 (Student's t-test). Error bars, mean±SD.
(§1) (a) MDA-MB-468 cells were incubated in serum-free media with 200 nmol/l MitoTracker Red CMXRos and 5 μg/ml Hoechst 33342 nuclear stain, followed by either 20 μmol/l CP (A-B′) or 20 μmol/l EJ1 (C-D′), and imaged at 0 minutes (A, A′; and C, C′) or at 5 minutes (B, B′; and D, D′). (b) MDA-MB-468 cells were incubated with 1 μmol/l JC-1, followed by 20 μmol/l CP, 20 μmol/l EJ1, or 50 μmol/l CCCP. Results were calculated as the ratio of the 514/590 nm to 514/529 nm fluorescences and the ratio for CP-treated sample was set as 1. *P<0.05, Student's t-test. Error bars, mean±SD. […] Cells were then sorted by flow cytometer and analyzed by Cellquest Pro 4.0 software. The results are expressed as the percentage of DCFH fluorescence-positive cells. *P<0.05, Student's t-test. […]

MDA-MB-468 cells [2] = experiment: Intracellular ROS by flow cytometry, DCFH-DA; type: cell-based; settings: 20 μmol/l EJ1, 0.5 mmol/l NAC
Experimental: as §1, with “mean±SD. (c) T47D cells were treated with MitoTracker (shown in D-F and F′) and Hoechst 33342 as in (a) and incubated with 20 μmol/l FITC-labeled EJ1 (shown in A-C and C′).” for “mean±SD.”
Generation of intracellular ROS was evaluated by flow cytometry using the 2′,7′-dichlorofluorescein diacetate probe (Invitrogen). Fluorescent cells were analyzed by a FACScan flow cytometer (BD Biosciences) at the Flow Cytometry Shared Service in the Arizona Cancer Center, and the excitation/emission wavelengths were set at 488 and 525 nm, respectively.

CC(=O)N[C@@H](CS)C(=O)O [NAC, N-acetyl cysteine]
effect of co-treatment on EJ1-induced loss of cell viability (MTT) (MDA-MB-468 cells [1]): significantly rescue EJ1-induced cell death | intracellular ROS levels (DCF fluorescence) (MDA-MB-468 cells [2]): significantly reduced EJ1-induced ROS levels
